From patent US20130251822A1, “BIOCIDAL ALDEHYDE COMPOSITION” (priority 2011, published 2013)

What was measured:
[1] = test system: Pseudomonas aeruginosa; assay: chlorine dioxide (ClO2) and TTPC versus Pseudomonas aeruginosa, log reduction; assay type: cell-based; settings: 10^5 ml
Method: A test with chlorine dioxide (ClO2) and TTPC versus Pseudomonas aeruginosa was performed at 10^5 ml with ClO2 of 10 ppm. This alone gave a 1 log reduction in 30 min exposure. TTPC alone at 50 ppm gave a 2 log reduction. The combination of ClO2 and TTPC of 5ppm and 10 ppm gave a 5 log reduction in 30 min.

[2] = cited from earlier work
[3] = effective kill time based upon log reduction, TTPC versus dual chain quaternary ammonium; assay type: cell-based; settings: TTPC alone
Method: (§1) When TTPC was added to the core glutaraldehyde or OPA as a substitute for dual chain quaternary ammonium the effective kill time was twice as fast (2×) based upon log reduction. Similarly, the TTPC reduced the effective kill time of acid-producing bacteria (APB) by almost 50%. Although the kill speed of TTPC alone was 20% slower than the glut/quat formula of copending U.S. patent application Ser. No. 12/584,648, when incorporated with glutaraldehyde as a substitute for dual chain quaternary ammonium the kill time […] to four times faster, evidencing the synergism of the present combination.

[4] = test system: acid-producing bacteria (APB); assay: effective kill time of acid-producing bacteria; assay type: cell-based
Method: as §1

[5] = effectiveness based upon a 5 log reduction in oil frac water; assay type: cell-based
From the text: (§2) As such there is actually a slight increase in planktonic microbes which are more susceptible to biocide/TTPC effects. Individual biocides affect the physiology of the cell quite differently. […] This is an example of enhanced […]. The importance of the environmental parameter cannot be underestimated based upon the foregoing results. TTPC has a similar margin of exposure as the quats used for killing of aerobic organisms. […] The minimum inhibitory concentration (MIC) for the TTPC usage is 50-500 ppm. Therefore it is safe regarding corrosiveness, an important facet in instrument sterilization. […] The faster cidal action is due basically to the chemistry difference between amine quats and phosphonium salts. The ammonium quats have longer alkyl chains. Instead of amine the difference is a phosphonium ion but also importantly is the alkyl chain length. It has been determined that there is an optimal length for anti-bacterial effectiveness. It was dependent upon chain length and attachment moieties. […] Usually the longer chain was better but not in these cases. […] TTPC did. There are great differences between Gram + and Gram − bacteria in their cell walls. […] The Gram − wall is complicated. It has in addition to the wall of G+ an outer membrane of lipopolysaccharide and phospholipids that protects the cell.

[6] = minimum inhibitory concentration (MIC); assay type: cell-based
From the text: as §2

[7] = test system: sulfur reducing bacteria (SRB); assay: efficacy on sulfur reducing bacteria; assay type: cell-based
From the text: as §2

[8] = test system: MRSA, B. subtillis, E coli, pseudomonas aeruginosa, candida; assay: kill of test microorganisms in allotted time of 30 minutes; assay type: cell-based
From the text: as §2

SMILES: [O][Cl+][O-] [ClO2, chlorine dioxide]
- log reduction ([1]; ClO2 of 10 ppm alone, 30 min exposure): 1 log reduction

SMILES: O=Cc1ccccc1C=O [OPA, orthophthalaldehyde]
- disinfection time ([2]; high level disinfectant, 20-22 degrees C.): twelve

SMILES: CCCCCCCCCCCCCC[P+](CCCC)(CCCC)CCCC.[Cl-] [TTPC, tributyl tetradecyl phosphonium chloride]
- log reduction ([1]; TTPC alone at 50 ppm): 2 log reduction
- kill speed slower than the glut/quat formula [3]: 20%
- reduction of effective kill time [4]: ~50%
- effectiveness relative to original glut/quat formula [5]: 2 ×
- minimum inhibitory concentration (MIC) [6]: 50-500 ppm
- efficacy on sulfur reducing bacteria (SRB) [7]: almost equally effective
- kill of all the test bacteria in the allotted time [8]: did

SMILES: O=CCCCC=O [glutaraldehyde, Glutaraldehyde]
- residence time for disinfection ([2]; controlled temperature from 20 C to 25-30 C): 45 to 90 min
